This assay has as its target T1, SMARCA2 (Homo sapiens, UniProt P51531).
T1 construct: endogenous in cells
Kind of assay: SMARCA2 HiBiT degradation assay (cellular). The class given is cell-based. The note with it: for Emax: A549, Emax = amount of residual protein remaining in the cell following compound treatment; for DC50: SMARCA2 HiBiT cells, luminescence readout, 11-point titration from 10 μM, 6 hours or 16 hours, read-out: HiBit A549 SMARCA2 IP. (With HiBiT, luminescence reflects the tagged protein that the partner subunit can reach.)

The structures appear in SMILES notation.

T1 sequence (P51531 whole entry): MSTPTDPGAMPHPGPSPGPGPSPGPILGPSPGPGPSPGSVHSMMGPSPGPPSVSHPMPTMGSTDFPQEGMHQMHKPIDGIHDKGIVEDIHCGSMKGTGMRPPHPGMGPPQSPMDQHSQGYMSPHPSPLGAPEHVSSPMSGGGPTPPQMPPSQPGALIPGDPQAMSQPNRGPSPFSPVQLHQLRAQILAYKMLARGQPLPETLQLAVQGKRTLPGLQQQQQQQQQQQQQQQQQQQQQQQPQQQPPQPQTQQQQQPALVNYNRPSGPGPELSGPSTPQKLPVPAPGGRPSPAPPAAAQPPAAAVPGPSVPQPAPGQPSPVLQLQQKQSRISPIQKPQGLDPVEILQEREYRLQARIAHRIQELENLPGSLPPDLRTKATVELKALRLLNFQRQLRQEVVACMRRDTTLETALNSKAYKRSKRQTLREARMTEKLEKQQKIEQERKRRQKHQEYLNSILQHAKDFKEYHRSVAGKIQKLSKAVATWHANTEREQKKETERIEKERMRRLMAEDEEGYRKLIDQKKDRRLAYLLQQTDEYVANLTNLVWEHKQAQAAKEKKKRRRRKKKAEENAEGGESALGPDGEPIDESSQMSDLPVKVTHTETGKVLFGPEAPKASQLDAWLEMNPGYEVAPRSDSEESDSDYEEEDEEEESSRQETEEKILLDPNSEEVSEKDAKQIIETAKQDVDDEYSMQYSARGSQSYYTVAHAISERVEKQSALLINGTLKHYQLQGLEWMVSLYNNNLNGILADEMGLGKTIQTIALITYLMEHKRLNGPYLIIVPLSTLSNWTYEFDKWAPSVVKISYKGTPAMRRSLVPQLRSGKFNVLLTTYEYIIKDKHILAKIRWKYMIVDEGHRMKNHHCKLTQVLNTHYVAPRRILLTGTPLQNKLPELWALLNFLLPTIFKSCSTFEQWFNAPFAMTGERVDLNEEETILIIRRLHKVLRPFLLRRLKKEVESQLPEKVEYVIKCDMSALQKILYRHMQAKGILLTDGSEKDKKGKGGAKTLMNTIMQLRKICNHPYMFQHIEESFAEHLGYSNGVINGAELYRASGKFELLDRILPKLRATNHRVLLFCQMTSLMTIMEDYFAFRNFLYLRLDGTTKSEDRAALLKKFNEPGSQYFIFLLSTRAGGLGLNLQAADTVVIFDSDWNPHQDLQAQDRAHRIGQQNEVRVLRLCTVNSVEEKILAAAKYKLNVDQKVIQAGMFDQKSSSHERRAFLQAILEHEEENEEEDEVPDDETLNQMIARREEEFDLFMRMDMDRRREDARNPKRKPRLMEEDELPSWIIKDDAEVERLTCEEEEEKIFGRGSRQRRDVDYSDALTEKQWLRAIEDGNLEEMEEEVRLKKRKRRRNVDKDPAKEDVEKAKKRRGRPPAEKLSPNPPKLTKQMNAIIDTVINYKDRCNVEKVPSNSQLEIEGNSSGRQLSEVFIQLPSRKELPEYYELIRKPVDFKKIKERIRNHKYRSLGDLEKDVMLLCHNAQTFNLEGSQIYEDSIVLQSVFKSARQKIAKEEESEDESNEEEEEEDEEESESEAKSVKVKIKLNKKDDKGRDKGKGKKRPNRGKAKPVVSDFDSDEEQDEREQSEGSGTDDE

As a reminder, the Emax is the maximal effect, on the per cent scale that the assay sets. In the case of `Cc1ncsc1-c1ccc([C@H](C)NC(=O)[C@@H]2C[C@@H](O)CN2C(=O)[C@@H](NC(=O)CCCCCCCCC(=O)N2CCN(c3ccc(CN4CCCC(Oc5cc(-c6ccccc6O)nnc5N)C4)cc3)CC2)C(C)(C)C)cc1` (mixture of isomers) [Example 41, rac-(2S,4R)-4-hydroxy-1-[rac-(2S)-2-[[10-[4-[4-[[3-[3-amino-6-(2-hydroxyphenyl)pyridazin-4-yl]oxy-1-piperidyl]methyl]phenyl]piperazin-1-yl]-10-oxo-decanoyl]amino]-3,3-dimethyl-butanoyl]-N-[rac-(1S)-1-[4-(4-methylthiazol-5-yl)phenyl]ethyl]pyrrolidine-2-carboxamide], the Emax came out at 63% and the DC50 worked out at 204 nM.

As to `Cc1ncsc1-c1ccc([C@H](C)NC(=O)[C@@H]2C[C@@H](O)CN2C(=O)[C@@H](NC(=O)CCC(=O)N2CCN(CCOc3cccc(N4CCCC(Oc5cc(-c6ccccc6O)nnc5N)C4)c3)CC2)C(C)(C)C)cc1` (mixture of isomers) [Example 69, rac-(2S,4R)-4-hydroxy-1-[rac-(2S)-2-[[4-[4-[2-[3-[3-[3-amino-6-(2-hydroxyphenyl)pyridazin-4-yl]oxy-1-piperidyl]phenoxy]ethyl]piperazin-1-yl]-4-oxo-butanoyl]amino]-3,3-dimethyl-butanoyl]-N-[rac-(1S)-1-[4-(4-methylthiazol-5-yl)phenyl]ethyl]pyrrolidine-2-carboxamide], the Emax stood at 60% and the DC50 is 2110 nM.

Regarding `Cc1ncsc1-c1ccc(CNC(=O)[C@@H]2C[C@@H](O)CN2C(=O)[C@@H](NC(=O)CCCCCCCCCCC(=O)N2C3CCC2CN(c2cc(-c4ccccc4O)nnc2N)C3)C(C)(C)C)cc1` [Example 84, (2S,4R)-1-[(2S)-2-[[12-[3-[3-Amino-6-(2-hydroxyphenyl)pyridazin-4-yl]-3,8-diazabicyclo[3.2.1]octan-8-yl]-12-oxo-dodecanoyl]amino]-3,3-dimethyl-butanoyl]-4-hydroxy-N-[[4-(4-methylthiazol-5-yl)phenyl]methyl]pyrrolidine-2-carboxamide], the maximum response (Emax) stood at 38% and the DC50 was 902 nM.

As for `Cc1ncsc1-c1ccc([C@H](C)NC(=O)[C@@H]2C[C@@H](O)CN2C(=O)[C@@H](NC(=O)CCCCCCCCC(=O)N2CCN(CCOc3cccc(CCOc4cc(-c5ccccc5O)nnc4N)c3)CC2)C(C)(C)C)cc1` [Example 58, (2S,4R)-1-[(2S)-2-[[10-[4-[2-[3-[2-[3-amino-6-(2-hydroxyphenyl)pyridazin-4-yl]oxyethyl]phenoxy]ethyl]piperazin-1-yl]-10-oxo-decanoyl]amino]-3,3-dimethyl-butanoyl]-4-hydroxy-N-[(1S)-1-[4-(4-methylthiazol-5-yl)phenyl]ethyl]pyrrolidine-2-carboxamide], the Emax was determined as 22% and the DC50 amounted to 197 nM.

Turning to `Cc1ncsc1-c1ccc([C@H](C)NC(=O)[C@@H]2C[C@@H](O)CN2C(=O)[C@@H](NC(=O)CCC(=O)N2CCN(CCOc3cccc(CCOc4cc(-c5ccccc5O)nnc4N)c3)CC2)C(C)(C)C)cc1` [Example 73, (2S,4R)-1-[(2S)-2-[[4-[4-[2-[3-[2-[3-amino-6-(2-hydroxyphenyl)pyridazin-4-yl]oxyethyl]phenoxy]ethyl]piperazin-1-yl]-4-oxo-butanoyl]amino]-3,3-dimethyl-butanoyl]-4-hydroxy-N-[(1S)-1-[4-(4-methylthiazol-5-yl)phenyl]ethyl]pyrrolidine-2-carboxamide], the maximal response (Emax) stood at 29% and the DC50 is 1650 nM.

In the case of `Cc1ncsc1-c1ccc([C@H](C)NC(=O)[C@@H]2C[C@@H](O)CN2C(=O)[C@@H](NC(=O)CCCCCC(=O)N2CCN(CCOc3ccc(N4CCCC(Oc5cc(-c6ccccc6O)nnc5N)C4)cc3)CC2)C(C)(C)C)cc1` (mixture of isomers) [Example 77, rac-(2S,4R)-4-hydroxy-1-[rac-(2S)-2-[[7-[4-[2-[4-[3-[3-amino-6-(2-hydroxyphenyl)pyridazin-4-yl]oxy-1-piperidyl]phenoxy]ethyl]piperazin-1-yl]-7-oxo-heptanoyl]amino]-3,3-dimethyl-butanoyl]-N-[rac-(1S)-1-[4-(4-methylthiazol-5-yl)phenyl]ethyl]pyrrolidine-2-carboxamide], the maximal response (Emax) is 24% and the DC50 came out at 244 nM.

As for `Cc1ncsc1-c1ccc([C@H](C)NC(=O)[C@@H]2C[C@@H](O)CN2C(=O)[C@@H](NC(=O)CCCCCCCCCCC(=O)N2CCN(c3ccc(N4CCCC(Oc5cc(-c6ccccc6O)nnc5N)C4)cc3)CC2)C(C)(C)C)cc1` (mixture of isomers) [Example 48, rac-(2S,4R)-4-hydroxy-1-[rac-(2S)-2-[[12-[4-[4-[3-[3-amino-6-(2-hydroxyphenyl)pyridazin-4-yl]oxy-1-piperidyl]phenyl]piperazin-1-yl]-12-oxo-dodecanoyl]amino]-3,3-dimethyl-butanoyl]-N-[rac-(1S)-1-[4-(4-methylthiazol-5-yl)phenyl]ethyl]pyrrolidine-2-carboxamide], the maximum response (Emax) was determined as 22% and the DC50 worked out at 135 nM.

Regarding `Cc1ncsc1-c1ccc(CNC(=O)[C@@H]2C[C@@H](O)CN2C(=O)[C@H](NC(=O)CCCCCC(=O)N2CCN(CCOc3cccc(N4C5CCC4CN(c4cc(-c6ccccc6O)nnc4N)C5)c3)CC2)C(C)(C)C)cc1` [Example 9, (2S,4R)-1-[(2R)-2-[[7-[4-[2-[3-[3-[3-amino-6-(2-hydroxyphenyl)pyridazin-4-yl]-3,8-diazabicyclo[3.2.1]octan-8-yl]phenoxy]ethyl]piperazin-1-yl]-7-oxo-heptanoyl]amino]-3,3-dimethyl-butanoyl]-4-hydroxy-N-[[4-(4-methylthiazol-5-yl)phenyl]methyl]pyrrolidine-2-carboxamide], the maximal effect (Emax) came out at 58% and the DC50 amounted to 733 nM.

As to `Cc1ncsc1-c1ccc([C@H](C)NC(=O)[C@@H]2C[C@@H](O)CN2C(=O)[C@@H](NC(=O)CCCCCC(=O)N(C)CCCN(C)c2ccc(CCOc3cc(-c4ccccc4O)nnc3N)cc2)C(C)(C)C)cc1` (racemic) [Example 26, N′-[3-[4-[2-[3-amino-6-(2-hydroxyphenyl)pyridazin-4-yl]oxyethyl]-N-methyl-anilino]propyl]-N′-methyl-N-[rac-(1S)-2,2-dimethyl-1-[rac-(2S,4R)-4-hydroxy-2-[[rac-(1S)-1-[4-(4-methylthiazol-5-yl)phenyl]ethyl]carbamoyl]pyrrolidine-1-carbonyl]propyl]heptanediamide], the Emax was 60% and the DC50 was 1440 nM.

As to `Cc1ncsc1-c1ccc([C@H](C)NC(=O)[C@@H]2C[C@@H](O)CN2C(=O)[C@@H](NC(=O)CCC(=O)N2CCOC3(CCN(c4cc(-c5ccccc5O)nnc4N)CC3)C2)C(C)(C)C)cc1` [Example 42, (2S,4R)-1-[(2S)-2-[[4-[9-[3-amino-6-(2-hydroxyphenyl)pyridazin-4-yl]-1-oxa-4,9-diazaspiro[5.5]undecan-4-yl]-4-oxo-butanoyl]amino]-3,3-dimethyl-butanoyl]-4-hydroxy-N-[(1S)-1-[4-(4-methylthiazol-5-yl)phenyl]ethyl]pyrrolidine-2-carboxamide], the Emax was determined as 71% and the DC50 is 561 nM.

Consider `Cc1ncsc1-c1ccc([C@H](C)NC(=O)[C@@H]2C[C@@H](O)CN2C(=O)[C@@H](NC(=O)CCCCCCCCCCCCC(=O)N2CCOC3(CCN(c4cc(-c5ccccc5O)nnc4N)CC3)C2)C(C)(C)C)cc1` [Example 45, (2S,4R)-1-[(2S)-2-[[14-[9-[3-amino-6-(2-hydroxyphenyl)pyridazin-4-yl]-1-oxa-4,9-diazaspiro[5.5]undecan-4-yl]-14-oxo-tetradecanoyl]amino]-3,3-dimethyl-butanoyl]-4-hydroxy-N-[(1S)-1-[4-(4-methylthiazol-5-yl)phenyl]ethyl]pyrrolidine-2-carboxamide], for which the maximal response (Emax) is 33% and the DC50 came to 120 nM.

On to `Cc1ncsc1-c1ccc([C@H](C)NC(=O)[C@@H]2C[C@@H](O)CN2C(=O)[C@@H](NC(=O)CCOCCOCCC(=O)N(C)CC(COc2cc(-c3ccccc3O)nnc2N)c2ccccc2)C(C)(C)C)cc1` (mixture of isomers) [Example 24, rac-(2S,4R)-4-hydroxy-1-[rac-(2S)-2-[3-[2-[3-[[3-[3-amino-6-(2-hydroxyphenyl)pyridazin-4-yl]oxy-2-phenyl-propyl]-methyl-amino]-3-oxo-propoxy]ethoxy]propanoylamino]-3,3-dimethyl-butanoyl]-N-[rac-(1S)-1-[4-(4-methylthiazol-5-yl)phenyl]ethyl]pyrrolidine-2-carboxamide], for which the maximum response (Emax) worked out at 42% and the DC50 amounted to 2850 nM.

Regarding `Cc1ncsc1-c1ccc(CNC(=O)[C@@H]2C[C@@H](O)CN2C(=O)[C@@H](NC(=O)CCCCCCCC(=O)N2CCN(Cc3cccc(N4C5CCC4CN(c4cc(-c6ccccc6O)nnc4N)C5)c3)CC2)C(C)(C)C)cc1` [Example 3, (2S,4R)-1-[(2S)-2-[[9-[4-[[3-[3-[3-amino-6-(2-hydroxyphenyl)pyridazin-4-yl]-3,8-diazabicyclo[3.2.1]octan-8-yl]phenyl]methyl]piperazin-1-yl]-9-oxo-nonanoyl]amino]-3,3-dimethyl-butanoyl]-4-hydroxy-N-[[4-(4-methylthiazol-5-yl)phenyl]methyl]pyrrolidine-2-carboxamide], the maximal effect (Emax) stood at 51% and the DC50 worked out at 479 nM.

With `Cc1ncsc1-c1ccc([C@H](C)NC(=O)[C@@H]2C[C@@H](O)CN2C(=O)[C@@H](NC(=O)CCCCCCCCCCC(=O)N2CCOC3(CCN(c4cc(-c5ccccc5O)nnc4N)CC3)C2)C(C)(C)C)cc1` [Example 44, (2S,4R)-1-[(2S)-2-[[12-[9-[3-amino-6-(2-hydroxyphenyl)pyridazin-4-yl]-1-oxa-4,9-diazaspiro[5.5]undecan-4-yl]-12-oxo-dodecanoyl]amino]-3,3-dimethyl-butanoyl]-4-hydroxy-N-[(1S)-1-[4-(4-methylthiazol-5-yl)phenyl]ethyl]pyrrolidine-2-carboxamide], the Emax was 21% and the DC50 worked out at 205 nM.

The record behind these values is patent publication US20230002367A1, “BIFUNCTIONAL COMPOUNDS” (Hoffmann-La Roche Inc., priority 2019, published 2023).
